One block for each molecule: values may come before it.
Test system: K98450-129-R-PDC multicell spheroids, viability
Assay: Anticancer human tumor K98450-129-R-PDC patient-derived colon adenocarcinoma cell line growth inhibition [PI3K]
Details: for IC50: curve of first compound; for viability, T/C: stronger effect = lower value
How it was run: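 Stroma-containing spheroids: tumor line, pooled-donor HUVEC, hMSC. Treatments: targeted agents with PI3K inhibitors. Dosing: clinically relevant, half-log spacing, 10 microM ceiling without known Cmax. Read-out: cell viability.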

[1] = second compound 0.0316 µM, first compound 0.0316 µM
[2] = second compound 0.0316 µM, first compound 0.1 µM
[3] = second compound 0.0316 µM, first compound 0.316 µM
[4] = second compound 0.0316 µM, first compound 1 µM
[5] = second compound 0.0316 µM, first compound 3.16 µM
[6] = second compound 0.0316 µM, first compound 10 µM
[7] = second compound 0.1 µM, first compound 0.0316 µM
[8] = second compound 0.1 µM, first compound 0.1 µM
[9] = second compound 0.1 µM, first compound 0.316 µM
[10] = second compound 0.1 µM, first compound 1 µM
[11] = second compound 0.1 µM, first compound 3.16 µM
[12] = second compound 0.1 µM, first compound 10 µM
[13] = second compound 0.316 µM, first compound 0.0316 µM
[14] = second compound 0.316 µM, first compound 0.1 µM
[15] = second compound 0.316 µM, first compound 0.316 µM
[16] = second compound 0.316 µM, first compound 1 µM
[17] = second compound 0.316 µM, first compound 3.16 µM
[18] = second compound 0.316 µM, first compound 10 µM
[19] = second compound 1 µM, first compound 0.0316 µM
[20] = second compound 1 µM, first compound 0.1 µM
[21] = second compound 1 µM, first compound 0.316 µM
[22] = second compound 1 µM, first compound 1 µM
[23] = second compound 1 µM, first compound 3.16 µM
[24] = second compound 1 µM, first compound 10 µM
[25] = second compound 3.16 µM, first compound 0.0316 µM
[26] = second compound 3.16 µM, first compound 0.1 µM
[27] = second compound 3.16 µM, first compound 0.316 µM
[28] = second compound 3.16 µM, first compound 1 µM
[29] = second compound 3.16 µM, first compound 3.16 µM
[30] = second compound 3.16 µM, first compound 10 µM
[31] = second compound 10 µM, first compound 0.0316 µM
[32] = second compound 10 µM, first compound 0.1 µM
[33] = second compound 10 µM, first compound 0.316 µM
[34] = second compound 10 µM, first compound 1 µM
[35] = second compound 10 µM, first compound 3.16 µM
[36] = second compound 10 µM, first compound 10 µM
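Also: spheroids exposed to agents for seven days before read-out.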

IC50 (second compound 0.0316 µM): > 10 µM | IC50 (second compound 0.1 µM): > 10 µM | IC50 (second compound 0.316 µM): > 10 µM | IC50 (second compound 1 µM): > 10 µM | IC50 (second compound 3.16 µM): > 10 µM | IC50 (second compound 10 µM): > 10 µM
SMILES: CC(C)NCC(C(=O)N1CCN(c2ncnc3c2C(C)CC3O)CC1)c1ccc(Cl)cc1 (centres undefined) + Cc1nc(NC(=O)N2CCCC2C(N)=O)sc1-c1ccnc(C(C)(C)C(F)(F)F)c1
viability, T/C [1]: 104% | viability, T/C [2]: 99.1% | viability, T/C [3]: 107% | viability, T/C [4]: 104% | viability, T/C [5]: 100% | viability, T/C [6]: 102% | viability, T/C [7]: 108% | viability, T/C [8]: 98.8% | viability, T/C [9]: 103% | viability, T/C [10]: 100% | viability, T/C [11]: 103% | viability, T/C [12]: 99.9% | viability, T/C [13]: 104% | viability, T/C [14]: 105% | viability, T/C [15]: 104% | viability, T/C [16]: 95.2% | viability, T/C [17]: 101% | viability, T/C [18]: 97% | viability, T/C [19]: 84.6% | viability, T/C [20]: 93.1% | viability, T/C [21]: 96.5% | viability, T/C [22]: 89.6% | viability, T/C [23]: 102% | viability, T/C [24]: 94.5% | viability, T/C [25]: 86.6% | viability, T/C [26]: 84.1% | viability, T/C [27]: 90.2% | viability, T/C [28]: 80.3% | viability, T/C [29]: 95.6% | viability, T/C [30]: 91.1% | viability, T/C [31]: 70.7% | viability, T/C [32]: 78% | viability, T/C [33]: 77% | viability, T/C [34]: 73.1% | viability, T/C [35]: 78.1% | viability, T/C [36]: 75%

IC50 (second compound 0.0316 µM): > 10 µM | IC50 (second compound 0.1 µM): 7.06 µM | IC50 (second compound 0.316 µM): > 10 µM | IC50 (second compound 1 µM): 4.51 µM | IC50 (second compound 3.16 µM): 5.35 µM | IC50 (second compound 10 µM): 2.33 µM
SMILES: CC1(C)CCC(Nc2ncc(C(F)(F)F)c(-c3c[nH]c4c(P(C)(C)=O)c(C#N)ccc34)n2)CN1 (centres undefined) + CC(Nc1ncnc2nc[nH]c12)c1cc2cccc(Cl)c2c(=O)n1-c1ccccc1
viability, T/C [1]: 104% | viability, T/C [2]: 85.5% | viability, T/C [3]: 67.9% | viability, T/C [4]: 67.4% | viability, T/C [5]: 66.2% | viability, T/C [6]: 44.5% | viability, T/C [7]: 139% | viability, T/C [8]: 108% | viability, T/C [9]: 69.2% | viability, T/C [10]: 68.7% | viability, T/C [11]: 78.7% | viability, T/C [12]: 45.2% | viability, T/C [13]: 101% | viability, T/C [14]: 98.4% | viability, T/C [15]: 75.3% | viability, T/C [16]: 58.6% | viability, T/C [17]: 76.8% | viability, T/C [18]: 45% | viability, T/C [19]: 107% | viability, T/C [20]: 93.6% | viability, T/C [21]: 74.7% | viability, T/C [22]: 64.6% | viability, T/C [23]: 62.9% | viability, T/C [24]: 36.9% | viability, T/C [25]: 101% | viability, T/C [26]: 82.4% | viability, T/C [27]: 63.8% | viability, T/C [28]: 70.9% | viability, T/C [29]: 65.1% | viability, T/C [30]: 36.7% | viability, T/C [31]: 94.9% | viability, T/C [32]: 88.5% | viability, T/C [33]: 63.3% | viability, T/C [34]: 62% | viability, T/C [35]: 59.6% | viability, T/C [36]: 21.6%

Reference: PubChem BioAssay AID1963961 (Molecular Pharmacology Branch, DTP, NCI, 2024)
